Measured values reported in ChEMBL document CHEMBL5214932, “A closer look at N2,6-substituted 1,3,5-triazine-2,4-diamines: Advances in synthesis and biological activities” (Eur J Med Chem, 2022).
pEC50, pIC50, pKi: −log10 of the molar value.

Columns and labels:
[1] = molecular target: 5-hydroxytryptamine receptor 7 (Homo sapiens, UniProt P34969); assay: Displacement of [3H]-5Carboxyamidotryptamine from human 5-HT7R expressed in HEK293 cells by radioligand binding assay; assay type: cell-based
[2] = molecular target: 5-hydroxytryptamine receptor 1A (Homo sapiens, UniProt P08908); assay: Displacement of […] from human 5-HT1AR expressed in HEK293 cells by radioligand binding assay; assay type: cell-based
D(2) dopamine receptor = D(2) dopamine receptor (Homo sapiens, UniProt P14416); assay: Displacement of [3H]-Raclopride from human dopamine D2 receptor expressed in HEK293 cells by radioligand binding assay; assay type: cell-based
[3] = molecular target: 5-hydroxytryptamine receptor 2A (Homo sapiens, UniProt P28223); assay: Displacement of […] from human 5-HT2AR expressed in HEK293 cells by radioligand binding assay; assay type: cell-based
DAN-G = assay: Cytotoxicity against human DAN-G cells assessed as cell growth inhibition measured after 96 hrs by microplate reader analysis; assay type: functional, cell-based
SISO = assay: Cytotoxicity against human SISO cells assessed as cell growth inhibition measured after 96 hrs by microplate reader analysis; assay type: functional, cell-based
LCLC = assay: Cytotoxicity against human LCLC cells assessed as cell growth inhibition measured after 96 hrs by microplate reader analysis; assay type: functional, cell-based
A-427 = assay: Cytotoxicity against human A-427 cells assessed as cell growth inhibition measured after 96 hrs by microplate reader analysis; assay type: functional, cell-based; conditions: A-427, 96 h
RT-4 = assay: Cytotoxicity against human RT-4 cells assessed as cell growth inhibition measured after 96 hrs by microplate reader analysis; assay type: functional, cell-based; conditions: RT-4, 96 h
[4] = molecular target: T1, 5-hydroxytryptamine receptor 6 (Homo sapiens, UniProt P50406); assay: Displacement of [3H]-LSD from human 5-HT6R expressed in HEK293 cells assessed as binding constant by radioligand binding assay; assay type: cell-based
Jurkat = assay: Cytotoxicity against human Jurkat cells assessed as cell growth inhibition measured after 72 hrs by MTS assay; assay type: functional, cell-based
[5] = tested on: Human immunodeficiency virus 1; assay: Antiviral activity against NNRTI resistant HIV1 harboring Lys103Asn mutant infected in human MT4 cells assessed as reduction in virus-induced cytopathic effect measured after 5 days by MTT assay; assay type: functional, organism-based; conditions: Human immunodeficiency virus 1, MT4, 120 h
[6] = tested on: Human immunodeficiency virus 1; assay: Antiviral activity against NNRTI resistant HIV1 harboring Tyr188Leu mutant infected in human MT4 cells assessed as reduction in virus-induced cytopathic effect measured after 5 days by MTT assay; assay type: functional, organism-based; conditions: Human immunodeficiency virus 1, MT4, 120 h
[7] = tested on: Human immunodeficiency virus 1; assay: Antiviral activity against NNRTI resistant HIV1 harboring Tyr181Cys mutant infected in human MT4 cells assessed as reduction in virus-induced cytopathic effect measured after 5 days by MTT assay; assay type: functional, organism-based; conditions: Human immunodeficiency virus 1, MT4, 120 h
[8] = tested on: Human immunodeficiency virus 1; assay: Antiviral activity against NNRTI resistant HIV1 harboring Leu100IIe mutant infected in human MT4 cells assessed as reduction in virus-induced cytopathic effect measured after 5 days by MTT assay; assay type: functional, organism-based; conditions: Human immunodeficiency virus 1, MT4, 120 h
[9] = tested on: Human immunodeficiency virus 1; assay: Antiviral activity against NNRTI resistant HIV1 LAI infected in human MT4 cells assessed as reduction in virus-induced cytopathic effect measured after 5 days by MTT assay; assay type: functional, organism-based; conditions: Human immunodeficiency virus 1, LAI, MT4, 120 h
[10] = tested on: Human immunodeficiency virus 1; assay: Antiviral activity against NNRTI resistant HIV1 harboring Val106Ala mutant infected in human MT4 cells assessed as reduction in virus-induced cytopathic effect measured after 5 days by MTT assay; assay type: functional, organism-based; conditions: Human immunodeficiency virus 1, MT4, 120 h
[11] = tested on: Human immunodeficiency virus 1; assay: Antiviral activity against wild type HIV1 IIIB assessed as viral growth inhibition measured after 5 days by MTT assay; assay type: functional, organism-based; conditions: Human immunodeficiency virus 1, IIIB, 120 h
[12] = tested on: Human immunodeficiency virus 1; assay: Antiviral activity against NNRTI resistant HIV1 harboring Gly190Ala mutant infected in human MT4 cells assessed as reduction in virus-induced cytopathic effect measured after 5 days by MTT assay; assay type: functional, organism-based; conditions: Human immunodeficiency virus 1, MT4, 120 h
[13] = molecular target: T2, Free fatty acid receptor 1 (Homo sapiens, UniProt O14842); assay: Positive allosteric modulation of GPR40 (unknown origin) at 100 uM assessed as maximum efficacy relative to control; conditions: filed as positive allosteric modulator
[14] = molecular target: T2, Free fatty acid receptor 1; assay: Positive allosteric modulation of GPR40 (unknown origin)
[15] = molecular target: T1, 5-hydroxytryptamine receptor 6; assay: Displacement of [3H]-LSD from human 5-HT6R expressed in HEK293 cells by radioligand binding assay; assay type: cell-based
MDA-MB-231 = assay: Antiproliferative activity against human MDA-MB-231 cells assessed as cell growth inhibition measured after 72 hrs by MTT assay; assay type: functional, cell-based; conditions: MDA-MB-231, 72 h
SK-BR-3 = assay: Antiproliferative activity against human SK-BR-3 cells assessed as cell growth inhibition measured after 72 hrs by MTT assay; assay type: functional, cell-based; conditions: SK-BR-3, 72 h
MCF-10A = assay: Antiproliferative activity against human MCF-10A cells assessed as cell growth inhibition measured after 72 hrs by MTT assay; assay type: functional, cell-based
MCF7 = assay: Antiproliferative activity against human MCF7 cells assessed as cell growth inhibition measured after 72 hrs by MTT assay; assay type: functional, cell-based; conditions: MCF7, 72 h

Sequence of 5-hydroxytryptamine receptor 7 (P34969 whole entry): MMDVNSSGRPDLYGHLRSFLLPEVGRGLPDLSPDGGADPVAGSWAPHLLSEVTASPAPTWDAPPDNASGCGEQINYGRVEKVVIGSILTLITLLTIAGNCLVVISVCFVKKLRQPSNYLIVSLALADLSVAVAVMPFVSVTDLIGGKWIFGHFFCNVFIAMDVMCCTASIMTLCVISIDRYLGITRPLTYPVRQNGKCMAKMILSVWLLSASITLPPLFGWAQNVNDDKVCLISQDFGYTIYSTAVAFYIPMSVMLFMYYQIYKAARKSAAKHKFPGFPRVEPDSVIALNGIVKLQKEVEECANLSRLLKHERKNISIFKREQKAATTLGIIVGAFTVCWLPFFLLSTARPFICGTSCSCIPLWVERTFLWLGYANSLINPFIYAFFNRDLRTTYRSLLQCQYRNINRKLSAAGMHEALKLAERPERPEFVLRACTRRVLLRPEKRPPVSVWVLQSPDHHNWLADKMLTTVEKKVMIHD
Sequence of 5-hydroxytryptamine receptor 1A (P08908 whole entry): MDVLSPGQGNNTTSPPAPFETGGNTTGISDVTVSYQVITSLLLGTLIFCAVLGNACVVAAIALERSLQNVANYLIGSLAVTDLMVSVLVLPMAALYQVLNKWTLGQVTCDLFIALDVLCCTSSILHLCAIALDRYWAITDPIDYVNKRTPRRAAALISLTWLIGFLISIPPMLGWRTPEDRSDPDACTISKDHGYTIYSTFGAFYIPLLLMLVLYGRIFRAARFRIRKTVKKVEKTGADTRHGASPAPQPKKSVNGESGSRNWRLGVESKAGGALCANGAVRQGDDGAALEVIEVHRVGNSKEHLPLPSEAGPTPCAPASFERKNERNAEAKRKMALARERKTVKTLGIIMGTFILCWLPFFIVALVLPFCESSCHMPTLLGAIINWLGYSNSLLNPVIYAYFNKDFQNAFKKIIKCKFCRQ
T1 sequence (P50406 whole entry): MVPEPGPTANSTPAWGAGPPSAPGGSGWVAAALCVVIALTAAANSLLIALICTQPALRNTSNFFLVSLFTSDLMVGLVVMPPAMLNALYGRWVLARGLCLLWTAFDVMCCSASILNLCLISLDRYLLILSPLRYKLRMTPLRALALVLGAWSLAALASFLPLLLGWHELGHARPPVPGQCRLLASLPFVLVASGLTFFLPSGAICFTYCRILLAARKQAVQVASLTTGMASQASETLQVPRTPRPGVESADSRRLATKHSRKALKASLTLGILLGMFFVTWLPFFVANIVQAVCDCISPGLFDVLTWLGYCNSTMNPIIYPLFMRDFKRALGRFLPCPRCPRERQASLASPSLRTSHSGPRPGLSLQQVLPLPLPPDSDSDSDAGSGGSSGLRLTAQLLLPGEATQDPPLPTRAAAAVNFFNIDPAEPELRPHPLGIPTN
Sequence of D(2) dopamine receptor (P14416 whole entry): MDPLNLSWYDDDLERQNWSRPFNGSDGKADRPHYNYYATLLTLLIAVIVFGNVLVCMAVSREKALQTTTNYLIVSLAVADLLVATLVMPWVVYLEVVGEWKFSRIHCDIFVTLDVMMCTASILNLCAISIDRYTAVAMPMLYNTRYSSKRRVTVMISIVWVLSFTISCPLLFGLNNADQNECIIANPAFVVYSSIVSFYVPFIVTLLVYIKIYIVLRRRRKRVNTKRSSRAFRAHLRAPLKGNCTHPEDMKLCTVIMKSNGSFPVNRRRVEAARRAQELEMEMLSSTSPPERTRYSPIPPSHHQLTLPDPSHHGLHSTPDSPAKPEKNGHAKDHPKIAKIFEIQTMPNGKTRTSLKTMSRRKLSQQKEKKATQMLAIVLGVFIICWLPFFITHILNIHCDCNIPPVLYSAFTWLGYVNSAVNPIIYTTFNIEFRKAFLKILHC
T2 sequence (O14842 whole entry): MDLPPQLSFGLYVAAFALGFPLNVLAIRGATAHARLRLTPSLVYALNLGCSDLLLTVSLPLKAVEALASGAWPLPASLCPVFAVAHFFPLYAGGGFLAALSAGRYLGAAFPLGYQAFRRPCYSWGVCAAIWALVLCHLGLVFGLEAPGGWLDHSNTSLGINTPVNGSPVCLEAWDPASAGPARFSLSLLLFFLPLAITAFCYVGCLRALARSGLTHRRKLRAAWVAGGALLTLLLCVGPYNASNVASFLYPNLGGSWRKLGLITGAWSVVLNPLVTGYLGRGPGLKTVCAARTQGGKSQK
Sequence of 5-hydroxytryptamine receptor 2A (P28223 whole entry): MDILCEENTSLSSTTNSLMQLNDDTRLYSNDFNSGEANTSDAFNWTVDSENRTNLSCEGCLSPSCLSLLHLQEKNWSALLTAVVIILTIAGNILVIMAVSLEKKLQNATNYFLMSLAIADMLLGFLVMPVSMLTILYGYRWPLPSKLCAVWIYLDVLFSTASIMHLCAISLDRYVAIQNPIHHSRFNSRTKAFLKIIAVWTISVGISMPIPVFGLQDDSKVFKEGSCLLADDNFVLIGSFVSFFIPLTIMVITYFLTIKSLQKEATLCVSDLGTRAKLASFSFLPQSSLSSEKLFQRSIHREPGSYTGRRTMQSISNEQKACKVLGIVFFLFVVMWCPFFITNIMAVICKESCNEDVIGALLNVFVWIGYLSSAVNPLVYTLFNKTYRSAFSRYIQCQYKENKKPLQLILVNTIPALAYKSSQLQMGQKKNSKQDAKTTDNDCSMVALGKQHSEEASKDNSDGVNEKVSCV

## CN1CCN(c2nc(N)nc(C(C)(C)Sc3ccc4ccccc4c3)n2)CC1
[1]
  pKi: 6.21
[2]
  pKi: 5.64
D(2) dopamine receptor
  pKi: 6.52
[3]
  pKi: 7.41

## CCN(CC)c1ccc2cc(-c3nc(N)nc(N4CCN(c5ccccc5)CC4)n3)c(=N)oc2c1
DAN-G
  pIC50: 5.67
SISO
  pIC50: 5.59
LCLC
  pIC50: 5.66
A-427
  pIC50: 5.82
RT-4
  pIC50: 5.78

## CN1CCN(c2nc(N)nc(Cc3c[nH]c4ccccc34)n2)CC1
[1]
  pKi: 4.77
[2]
  pKi: 5.02
[4]
  Kb: 18 nM
D(2) dopamine receptor
  pKi: 5.71

## Nc1nc(-c2ccccc2)nc(N2CCc3ccccc3C2)n1
Jurkat
  pIC50: 5.71

## Cc1cc(C)c(Cc2nc(N)nc(Nc3ccc(C#N)cc3)n2)c(C)c1
[5]
  pIC50: 8.52
[6]
  pIC50: 7.35
[7]
  pIC50: 7.82
[8]
  pIC50: 7.09
[9]
  pIC50: 9.10

## N#Cc1ccc(Nc2nc(N)nc(Cc3c(Cl)ccc4[nH]ccc34)n2)cc1
[5]
  pIC50: 7.20
[6]
  pIC50: 6.00
[7]
  pIC50: 6.60
[10]
  pIC50: 7.20
[8]
  pIC50: 6.00
[11]
  pIC50: 8.52
[12]
  pIC50: 8.52

## Cc1ccccc1Nc1nc(N)nc(COc2ccc3c(C)cc(=O)oc3c2)n1
[13]
  Emax: 134%
[14]
  pEC50: 6.11

## CCC(Oc1cc(Cl)ccc1Cl)c1nc(N)nc(N2CCN(C)CC2)n1 (stereo unspecified)
[1]
  pKi: 5.24

## CC(Oc1ccccc1Cl)c1nc(N)nc(N2CCN(C)CC2)n1 (stereo unspecified)
[15]
  pKi: 7.55

## N#Cc1ccc(Nc2nc(N)nc(Cc3c(Cl)cccc3Cl)n2)cc1
[5]
  pIC50: 7.40
[7]
  pIC50: 6.70
[10]
  pIC50: 7.59
[8]
  pIC50: 6.53
[11]
  pIC50: 8.70
[9]
  pIC50: 8.20
[12]
  pIC50: 9.00

## COc1cc(-c2nc(N)nc(Nc3ccc(C)cc3)n2)cc(OC)c1OC
MDA-MB-231
  pIC50: 9.00
SK-BR-3
  pIC50: 6.68
MCF-10A
  pIC50: < 4.70
MCF7
  pIC50: < 4.70
